{"source": "patent US20250213593A1", "about": "“Use of Derivatives based on Sarsasapogenin Structure and Pharmaceutical Compositions thereof” (BEIJING PHYTOVENT PHARMACEUTICAL TECHNOLOGY CO., LTD., priority 2022, published 2025)", "key": {"[1]": {"test_system": "rats with ulcerative colitis induced by TNBS", "assay": "TNBS rats enteritis model", "type": "in vivo, rat", "conditions": "80 mpk oral gavage once a day, 7 days", "method": "All rats except the normal control group were fasted for solids (not liquids) for 24 h. After being anesthetized with isoflurane, the rats were transrectally infused with a TNBS ethanol solution (18 mg TNBS/mouse) at 0.5 mL/mouse through a latex hose, the length of the hose into the rectum was about 8 cm, an anesthesia state was continued after the hose was withdrawn, and the rats were kept in an inclined state for 15 min. The rats in the normal control group were not stimulated with rectal cannula. After the animals were awake, they were randomly divided into groups, which then began to be administrated with drugs (marked as D1). The blank group and the model group were administrated with the same amount of vehicle by oral gavage once a day for 7 consecutive days (D1-D7). The animal's status and feces (loose stools or bloody stools) were observed every day. The body weights were monitored. On the next day after the last administration (D8), the animals were deeply anesthetized with CO2, sacrificed and dissected. The entire colon tissues were harvested. The colon content was washed with normal saline after dissection along the mesenteric side. The body weights were measured and the colon lengths were measured. A ulcer surface was measured by Image J software. The general conditions of the colons were observed and photographed. Some of diseased tissues were fixed with formalin, and subjected to histopathological observation by HE staining. • Results: (1) the effects on general conditions of TNBS colitis mice were shown in FIG. 46a: the rats had loose stool on the next day of TNBS modeling; and the modeled mice had symptoms of reduced diet, tiredness, emaciation, erect hair, and dull hair. The feces of some rats were improved in the later stage of administration, but some rats still maintained loose stool until the end of the experiment, and some rats had obvious abdominal distension in the later stage of the experiment."}, "[2]": {"test_system": "OCI-LY3 (human diffuse large B-cell lymphoma cells)", "assay": "Cell proliferation assay, OCI-LY3", "type": "cell-based", "conditions": "Homo sapiens, OCI-Ly3, 72 h"}, "ICR mice": {"test_system": "ICR mice", "assay": "Sleep of mice at subthreshold hypnotic dosage of sodium pentobarbital", "type": "in vivo, mouse", "conditions": "single oral gavage, high-, medium- and low-dosage; vs blank control", "method": "After adaptive feeding of mice, 50 qualified animals were selected according to their body weights and divided into 5 groups by Excel complete randomization: a blank control group, a positive control group (Diazepam), and high-, medium- and low-dosage groups of test product, with 10 animals in each group. Animals in each group should be administrated with drug solutions and vehicles. After 1 h of administration, the animals in each group were intraperitoneally injected with a maximum subthreshold dosage of sodium pentobarbital (firstly, a pre-experiment was conducted to determine a maximum subthreshold hypnotic dosage of sodium pentobarbital)."}, "[3]": {"test_system": "transgenic AD rat model (human APP mutant protein, SD rats)", "assay": "Water maze test of AD rats", "conditions": "administered from 7 to 13 months of age; vs model group"}, "[4]": {"test_system": "mice with ulcerative colitis induced by 3.0% DSS", "assay": "DSS mouse enteritis model", "type": "in vivo", "conditions": "80 mpk oral gavage once a day, 9 days", "from_the_text": "60 mice in good health were divided into 6 groups according to body weight, with 10 mice in each group: a normal control group, a model group, a positive drug group, and groups of different test products (Embodiment 13B, Embodiment 33, and Embodiment 34, at a dosage of 80 mpk each). In addition to the normal control group, the mice in other groups were administrated with a 3.0% DSS solution to drink freely, and consecutively modeled for 8 days. The normal control group was administrated with autoclaved filtered water to drink freely. The drug was administered on the day of modeling, and a test product was administered by oral gavage according to a designed dosage, once a day for 9 consecutive days. […] On the next day after the last administration, after deep anesthesia with CO2, cardiac blood and plasma were collected, and cryopreserved at −80° C. Subsequently, the abdominal cavity was dissected, the liver was removed and cryopreserved at −80° C. Finally, the entire colon tissue was removed, the colon length was measured, photographs were taken, and the colon content was washed with normal saline after dissection along the mesenteric side and weighed."}, "hippocampal neurons": {"test_system": "hippocampal neurons", "assay": "L-cysteine-induced neuronal excitotoxicity", "type": "cell-based, SD rats", "conditions": "compound 1 μM, 24 h before inducer", "outline": "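Primary E18-19 SD rat hippocampal neurons at DIV19 pretreated 24 h with compound (final 1 μM; AP5 100 μM positive control, DMSO negative), then exposed to L-cystine 400 μM plus NaHCO3 10 mM for 18 h. Hoechst staining; total and dead neurons counted in 6 random fields per well.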"}, "[5]": {"test_system": "U2932 (human diffuse large B-cell lymphoma cells)", "assay": "Cell proliferation assay, U2932", "type": "cell-based", "conditions": "U2932, 72 h"}, "SOD^G93A transgenic mice": {"test_system": "SOD^G93A transgenic mice", "assay": "Open field test of SOD^G93A mice", "conditions": "40 mpk from Day 60, Week 14 to Week 19; vs model group"}}, "data": [{"compound": "C[C@H]1CC[C@@]2(OC1)O[C@H]1C[C@@H]3[C@H](CC[C@H]4[C@H]3CC[C@@H]3C[C@H](NC(=O)CC(=O)N5CCN(CCN(C)C)CC5)CC[C@@]34C)[C@H]1[C@@H]2C", "note": "[Embodiment 13b]", "values": [{"measurement": "colon ulcer area", "setting": "[1]", "value": "more significant"}, {"measurement": "colon weight per unit length (colon weight/colon length)", "setting": "[1]", "value": "more significant"}, {"measurement": "IC50", "setting": "[2]", "value": 4390, "unit": "nM"}, {"measurement": "sleep latency", "setting": "ICR mice", "value": "could shorten the sleep latency of the mice, which had a certain dosage-response relationship, but no statistically significant difference"}, {"measurement": "sleep time", "setting": "ICR mice", "value": "could prolong the sleep time of the mice, but there was no statistically significant difference"}, {"measurement": "average distance from the platform", "setting": "[3]", "value": "improved behavioral performances"}, {"measurement": "dwell time in the target quadrant", "setting": "[3]", "value": "improved behavioral performances"}, {"measurement": "number of platform shuttles", "setting": "[3]", "value": "improved behavioral performances"}, {"measurement": "colon length", "setting": "[4]", "value": "could increase the weights and lengths of the colons"}, {"measurement": "colon weight", "setting": "[4]", "value": "could increase the weights and lengths of the colons"}, {"measurement": "general conditions of DSS colitis mice", "setting": "[4]", "value": "certain improvement effects"}, {"measurement": "protective effects on L-Cystine (400 μM)-induced neuronal excitotoxicity", "setting": "hippocampal neurons", "value": "protective effects"}, {"measurement": "IC50", "setting": "[5]", "value": 720, "unit": "nM"}, {"measurement": "mean moving rate in open field", "setting": "SOD^G93A transgenic mice", "value": "much larger"}]}]}
